Data reported in publication PMC9481570, “A small molecule antagonist of SMN disrupts the interaction between SMN and RNAP II” (Nature Communications, 2022).
Several values for one entry are separate records, joined by “and”; a condition that tells them apart may be missing. Equal values may be shown once.

Legend:
Test in all cases: Affinity-purification and mass spectrometry (AP-MS) chemical proteomics, all proteins;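 on Difference: 200 µM free competitor with 20 µM biotin probe overnight in lysate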
Assay type in all cases: binding
[1] = target: T1, proteins displaced from immobilized biotin-Cmpd 1 pulldowns (U2OS cell lysate) (Homo sapiens, UniProt Q9BZG1); conditions: GN=RAB34 (Q9BZG1)
T1 construct: endogenous in cells; host or cells: U2OS

[2] = target: T2, proteins displaced from immobilized biotin-Cmpd 1 pulldowns (U2OS cell lysate) (Homo sapiens, UniProt P19367); conditions: GN=HK1 (P19367)
T2 construct: endogenous in cells; host or cells: U2OS

[3] = target: T3, proteins displaced from immobilized biotin-Cmpd 1 pulldowns (U2OS cell lysate) (Homo sapiens, UniProt P55072); conditions: GN=VCP (P55072)
T3 construct: endogenous in cells; host or cells: U2OS

[4] = target: T4, proteins displaced from immobilized biotin-Cmpd 1 pulldowns (U2OS cell lysate) (Homo sapiens, UniProt P09211); conditions: GN=GSTP1 (P09211)
T4 construct: endogenous in cells; host or cells: U2OS

[5] = target: T5, proteins displaced from immobilized biotin-Cmpd 1 pulldowns (U2OS cell lysate) (Homo sapiens, UniProt Q9NQC3); conditions: GN=RTN4 (Q9NQC3)
T5 construct: endogenous in cells; host or cells: U2OS

[6] = target: T6, proteins displaced from immobilized biotin-Cmpd 1 pulldowns (U2OS cell lysate) (Homo sapiens, UniProt Q14151); conditions: GN=SAFB2 (Q14151)
T6 construct: endogenous in cells; host or cells: U2OS

[7] = target: T7, proteins displaced from immobilized biotin-Cmpd 1 pulldowns (U2OS cell lysate) (Homo sapiens, UniProt P06493); conditions: GN=CDK1 (P06493)
T7 construct: endogenous in cells; host or cells: U2OS
T7 sequence (P06493 whole entry): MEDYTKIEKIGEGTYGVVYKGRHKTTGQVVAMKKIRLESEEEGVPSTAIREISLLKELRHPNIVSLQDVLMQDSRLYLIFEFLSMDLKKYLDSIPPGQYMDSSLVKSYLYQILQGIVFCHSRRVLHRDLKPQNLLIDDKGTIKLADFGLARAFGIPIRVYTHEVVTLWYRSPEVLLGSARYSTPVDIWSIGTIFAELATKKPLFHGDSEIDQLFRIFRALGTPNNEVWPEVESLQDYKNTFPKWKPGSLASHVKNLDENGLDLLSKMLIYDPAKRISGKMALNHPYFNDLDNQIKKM

T6 sequence (Q14151 whole entry): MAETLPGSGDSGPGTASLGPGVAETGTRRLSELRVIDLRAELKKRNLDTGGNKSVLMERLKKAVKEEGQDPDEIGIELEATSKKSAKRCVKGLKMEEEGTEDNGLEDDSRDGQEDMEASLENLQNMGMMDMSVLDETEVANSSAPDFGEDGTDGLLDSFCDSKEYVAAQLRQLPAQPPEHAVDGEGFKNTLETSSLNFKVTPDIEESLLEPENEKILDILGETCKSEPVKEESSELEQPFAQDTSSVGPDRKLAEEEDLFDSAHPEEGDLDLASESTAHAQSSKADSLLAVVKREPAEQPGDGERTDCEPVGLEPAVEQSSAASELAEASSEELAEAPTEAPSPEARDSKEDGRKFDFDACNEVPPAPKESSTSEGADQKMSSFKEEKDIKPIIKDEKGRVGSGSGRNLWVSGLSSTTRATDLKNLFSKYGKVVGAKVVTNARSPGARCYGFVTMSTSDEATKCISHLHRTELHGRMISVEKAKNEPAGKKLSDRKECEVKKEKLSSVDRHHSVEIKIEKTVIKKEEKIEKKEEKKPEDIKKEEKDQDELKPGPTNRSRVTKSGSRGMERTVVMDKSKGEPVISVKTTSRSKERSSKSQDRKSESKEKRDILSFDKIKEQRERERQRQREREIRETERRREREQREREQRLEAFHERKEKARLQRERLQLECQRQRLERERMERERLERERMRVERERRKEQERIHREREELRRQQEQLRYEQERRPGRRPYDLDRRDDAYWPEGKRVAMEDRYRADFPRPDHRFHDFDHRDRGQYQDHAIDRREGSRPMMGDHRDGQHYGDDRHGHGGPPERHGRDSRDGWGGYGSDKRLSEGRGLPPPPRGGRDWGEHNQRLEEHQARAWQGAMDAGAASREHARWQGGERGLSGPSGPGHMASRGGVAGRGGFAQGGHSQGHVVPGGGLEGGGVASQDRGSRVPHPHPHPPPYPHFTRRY
T2 sequence (P19367 whole entry): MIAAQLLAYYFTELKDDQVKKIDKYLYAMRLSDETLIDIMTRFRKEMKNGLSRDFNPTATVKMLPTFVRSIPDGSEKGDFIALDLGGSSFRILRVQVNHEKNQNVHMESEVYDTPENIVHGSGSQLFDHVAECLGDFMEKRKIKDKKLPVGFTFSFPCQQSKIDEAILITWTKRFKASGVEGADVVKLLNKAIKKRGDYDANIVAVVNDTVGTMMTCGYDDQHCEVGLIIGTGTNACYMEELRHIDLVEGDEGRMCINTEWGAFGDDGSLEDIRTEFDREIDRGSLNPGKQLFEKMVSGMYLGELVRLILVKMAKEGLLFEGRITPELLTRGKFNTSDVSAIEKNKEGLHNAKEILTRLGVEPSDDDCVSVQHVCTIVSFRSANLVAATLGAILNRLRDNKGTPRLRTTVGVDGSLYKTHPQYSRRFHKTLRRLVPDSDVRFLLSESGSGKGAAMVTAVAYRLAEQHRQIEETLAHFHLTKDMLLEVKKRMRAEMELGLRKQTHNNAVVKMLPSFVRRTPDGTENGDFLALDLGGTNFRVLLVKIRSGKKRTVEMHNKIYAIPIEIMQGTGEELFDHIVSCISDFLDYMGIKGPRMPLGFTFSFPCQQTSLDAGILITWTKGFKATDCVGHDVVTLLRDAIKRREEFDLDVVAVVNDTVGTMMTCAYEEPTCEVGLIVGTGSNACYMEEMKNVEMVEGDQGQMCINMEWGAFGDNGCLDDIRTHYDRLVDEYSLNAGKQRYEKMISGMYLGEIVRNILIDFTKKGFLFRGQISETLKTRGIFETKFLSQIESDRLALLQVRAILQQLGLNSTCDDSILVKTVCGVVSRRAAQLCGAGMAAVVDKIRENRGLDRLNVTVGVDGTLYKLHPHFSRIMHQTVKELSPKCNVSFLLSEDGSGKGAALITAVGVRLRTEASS
T4 sequence (P09211 whole entry): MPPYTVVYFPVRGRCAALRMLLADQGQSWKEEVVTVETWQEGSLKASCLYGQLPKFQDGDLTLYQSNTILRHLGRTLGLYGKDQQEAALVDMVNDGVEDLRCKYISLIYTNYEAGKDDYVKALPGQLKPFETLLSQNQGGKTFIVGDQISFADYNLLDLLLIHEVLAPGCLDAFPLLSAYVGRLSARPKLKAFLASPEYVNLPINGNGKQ
T5 sequence (Q9NQC3 whole entry): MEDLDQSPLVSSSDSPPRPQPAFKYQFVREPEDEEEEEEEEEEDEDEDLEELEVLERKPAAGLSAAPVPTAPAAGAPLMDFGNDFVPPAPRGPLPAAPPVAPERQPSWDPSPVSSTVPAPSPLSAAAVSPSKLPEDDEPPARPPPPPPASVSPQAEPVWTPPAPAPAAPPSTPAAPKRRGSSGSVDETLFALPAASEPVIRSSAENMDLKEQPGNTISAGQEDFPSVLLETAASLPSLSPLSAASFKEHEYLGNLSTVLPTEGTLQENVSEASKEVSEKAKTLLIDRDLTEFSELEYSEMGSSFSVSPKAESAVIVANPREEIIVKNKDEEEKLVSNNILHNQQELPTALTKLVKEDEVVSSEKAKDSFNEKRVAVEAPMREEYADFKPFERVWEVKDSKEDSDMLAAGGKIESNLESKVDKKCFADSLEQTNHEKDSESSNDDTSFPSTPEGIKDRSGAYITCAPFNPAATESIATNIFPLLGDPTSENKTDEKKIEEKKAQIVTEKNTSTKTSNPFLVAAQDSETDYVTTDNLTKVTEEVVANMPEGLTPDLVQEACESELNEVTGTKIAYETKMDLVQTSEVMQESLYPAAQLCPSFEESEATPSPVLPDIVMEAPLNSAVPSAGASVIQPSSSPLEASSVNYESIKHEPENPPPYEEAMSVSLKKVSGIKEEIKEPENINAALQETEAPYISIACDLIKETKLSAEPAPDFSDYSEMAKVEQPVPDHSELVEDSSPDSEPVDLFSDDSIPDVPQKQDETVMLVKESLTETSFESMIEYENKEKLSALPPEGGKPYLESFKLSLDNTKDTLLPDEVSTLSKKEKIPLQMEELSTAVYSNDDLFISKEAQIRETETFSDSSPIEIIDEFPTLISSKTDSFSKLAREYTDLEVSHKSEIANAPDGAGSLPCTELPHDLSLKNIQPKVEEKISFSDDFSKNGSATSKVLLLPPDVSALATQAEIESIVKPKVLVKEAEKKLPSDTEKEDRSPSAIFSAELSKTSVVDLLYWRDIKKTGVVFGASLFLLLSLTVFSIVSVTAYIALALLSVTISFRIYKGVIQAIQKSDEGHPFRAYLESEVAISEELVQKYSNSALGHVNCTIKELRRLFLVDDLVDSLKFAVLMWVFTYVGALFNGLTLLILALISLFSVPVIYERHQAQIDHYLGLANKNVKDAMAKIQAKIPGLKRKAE
T1 sequence (Q9BZG1 whole entry): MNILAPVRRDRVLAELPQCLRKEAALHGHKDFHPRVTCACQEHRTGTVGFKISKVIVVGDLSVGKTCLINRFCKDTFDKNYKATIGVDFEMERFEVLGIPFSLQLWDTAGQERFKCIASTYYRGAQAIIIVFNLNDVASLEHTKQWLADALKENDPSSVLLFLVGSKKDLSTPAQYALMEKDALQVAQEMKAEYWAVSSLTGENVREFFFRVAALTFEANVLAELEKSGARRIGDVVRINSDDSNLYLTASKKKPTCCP
T3 sequence (P55072 whole entry): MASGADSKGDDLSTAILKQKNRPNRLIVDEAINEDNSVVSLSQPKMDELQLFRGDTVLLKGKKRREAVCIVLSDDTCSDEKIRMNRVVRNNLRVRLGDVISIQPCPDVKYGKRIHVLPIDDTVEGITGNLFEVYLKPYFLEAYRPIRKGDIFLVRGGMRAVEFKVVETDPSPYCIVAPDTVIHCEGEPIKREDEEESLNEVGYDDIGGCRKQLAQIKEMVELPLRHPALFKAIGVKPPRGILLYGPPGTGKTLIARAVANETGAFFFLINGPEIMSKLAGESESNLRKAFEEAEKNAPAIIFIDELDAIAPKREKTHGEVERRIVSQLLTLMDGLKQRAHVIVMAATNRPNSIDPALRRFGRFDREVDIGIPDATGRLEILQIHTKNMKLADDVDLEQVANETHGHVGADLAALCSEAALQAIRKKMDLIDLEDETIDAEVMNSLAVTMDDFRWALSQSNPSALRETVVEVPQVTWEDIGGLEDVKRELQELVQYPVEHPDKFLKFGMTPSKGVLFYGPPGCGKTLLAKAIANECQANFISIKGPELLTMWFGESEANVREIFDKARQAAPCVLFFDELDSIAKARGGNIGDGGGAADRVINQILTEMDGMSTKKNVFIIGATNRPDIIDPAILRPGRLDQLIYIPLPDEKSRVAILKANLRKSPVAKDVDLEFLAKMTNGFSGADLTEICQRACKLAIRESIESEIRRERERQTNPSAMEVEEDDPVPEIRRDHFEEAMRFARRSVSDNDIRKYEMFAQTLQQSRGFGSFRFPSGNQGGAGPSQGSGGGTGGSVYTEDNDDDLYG

Structure (SMILES): Cn1c2c(c(=N)c3c1CCC3)CCC2 [Compound 1, 4-methyl-2,3,4,5,6,7-hexahydrodicyclopenta[b,e]pyridin-8(1H)-imine]
- Difference ([1]; Cmpd minus DMSO, -LOG(P-value) 1.66704): 2.667
- iBAQ Cmpd ([1]; replicates 1-3): 18.8001 and 17.2488 and 16.5904
- Difference ([2]; Cmpd minus DMSO, -LOG(P-value) 0.855582): 0.9514
- iBAQ Cmpd ([2]; replicates 1-3): 18.5229 and 17.0452 and 17.0803
- Difference ([3]; Cmpd minus DMSO, -LOG(P-value) 1.20929): 2.227
- iBAQ Cmpd ([3]; replicates 1-3): 18.6461 and 18.1931 and 16.8577
- Difference ([4]; Cmpd minus DMSO, -LOG(P-value) 0.706691): -2.301
- iBAQ Cmpd ([4]; replicates 1-3): 19.2888 and 14.7277 and 18.6327
- Difference ([5]; Cmpd minus DMSO, -LOG(P-value) 0.85719): 2.734
- iBAQ Cmpd ([5]; replicates 1-3): 19.1423 and 18.4673 and 18.3569
- Difference ([6]; Cmpd minus DMSO, -LOG(P-value) 1.24711): 1.435
- iBAQ Cmpd ([6]; replicates 1-3): 18.2139 and 16.8013 and 17.9077
- Difference ([7]; Cmpd minus DMSO, -LOG(P-value) 0.868994): -0.7208
- iBAQ Cmpd ([7]; replicates 1-3): 20.3513 and 19.7871 and 19.2381
